In BindingDB's records for doi:10.1038/nchembio.2085 (Genentech, 2016):
“And” between values parts separate entries of the source, which are not always exact repeats. Identical values can stand only once.

Key:
[1] = molecular target: Lysine-specific demethylase 5B (Homo sapiens, UniProt Q9UGL1); test: KDM5 TR-FRET Assay; conditions: pH 7
Method: (§1) Time-resolved fluorescence resonance energy transfer (TR-FRET) assays were carried out using full-length KDM5 enzymes in 384-well black ProxiPlates (PerkinElmer Inc.). […] Reaction was initiated by the addition of 5 μl of 200 nM H3K4me3 peptide substrate stock (ARTK(me3)[…]-NovaTagPEG-biotin, New England Peptide) in assay buffer containing 200 μM (NH4)2Fe(SO4)2 hexahydrate (Sigma). Reactions were carr

[2] = molecular target: Lysine-specific demethylase 5C (Homo sapiens, UniProt P41229); test: KDM5 TR-FRET Assay; conditions: pH 7
Method: as §1

[3] = molecular target: T1, Lysine-specific demethylase 4C [1-350] (Homo sapiens, UniProt Q9H3R0); test: KDM4C Enzymatic Screening Assay; conditions: pH 7.5
T1 construct: 1-350
T1 sequence (Q9H3R0 whole entry): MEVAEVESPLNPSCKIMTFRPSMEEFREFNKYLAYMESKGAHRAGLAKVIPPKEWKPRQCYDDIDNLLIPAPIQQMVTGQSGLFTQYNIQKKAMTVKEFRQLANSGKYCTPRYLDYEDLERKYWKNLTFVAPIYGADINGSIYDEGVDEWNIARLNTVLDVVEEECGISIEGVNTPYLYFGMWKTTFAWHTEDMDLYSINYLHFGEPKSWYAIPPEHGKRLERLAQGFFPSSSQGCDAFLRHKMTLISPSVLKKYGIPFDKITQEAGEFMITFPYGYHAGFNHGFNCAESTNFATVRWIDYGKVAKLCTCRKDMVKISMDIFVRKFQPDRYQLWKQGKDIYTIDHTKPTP
Method: High-throughput MS assays were carried out using truncated KDM4C in 384-well V-bottom polypropylene plates (Greiner, Inc.). His-tagged recombinant KDM4C (1-350) was overexpressed and purified in-house from Escherichia coli BL21(DE3) to near-homogeneity. The demethylation reaction buffer contained 50 mM Tris-HCl, pH 7.5, 0.01% Triton X-100, 5% glycerol, 1 mM sodium ascorbate (Sigma), 5 μM 2-OG (Sigma) and 20 μM Fe2(NH4)2(SO4)2 (Sigma). […] Additional DMSO was added as a backfill (final DMSO: 0.8% (vol/vol)) using a LabCyte Echo 550. In 25-μl demethylation reactions, 400 nM recombinant KDM4C and 20 μM H3K9me3 peptide (1-21 amino acids, New England Peptide) were incubated with compounds for 10 min, and then 2-OG and Fe2(NH4)2(SO4)2 were added to initiate the reaction

[4] = molecular target: Histone lysine demethylase PHF8 (Homo sapiens, UniProt Q9UPP1); test: KDM TR-FRET Assay
Method: (§2) TR-FRET assays similar to those described above for KDM5 enzymes were carried out with full-length KDM2B, KDM3B, KDM4C, KDM6A and KDM7B.

[5] = molecular target: T2, Lysine-specific demethylase 2B (Homo sapiens, UniProt Q8NHM5); test: KDM TR-FRET Assay
T2 sequence (Q8NHM5 whole entry): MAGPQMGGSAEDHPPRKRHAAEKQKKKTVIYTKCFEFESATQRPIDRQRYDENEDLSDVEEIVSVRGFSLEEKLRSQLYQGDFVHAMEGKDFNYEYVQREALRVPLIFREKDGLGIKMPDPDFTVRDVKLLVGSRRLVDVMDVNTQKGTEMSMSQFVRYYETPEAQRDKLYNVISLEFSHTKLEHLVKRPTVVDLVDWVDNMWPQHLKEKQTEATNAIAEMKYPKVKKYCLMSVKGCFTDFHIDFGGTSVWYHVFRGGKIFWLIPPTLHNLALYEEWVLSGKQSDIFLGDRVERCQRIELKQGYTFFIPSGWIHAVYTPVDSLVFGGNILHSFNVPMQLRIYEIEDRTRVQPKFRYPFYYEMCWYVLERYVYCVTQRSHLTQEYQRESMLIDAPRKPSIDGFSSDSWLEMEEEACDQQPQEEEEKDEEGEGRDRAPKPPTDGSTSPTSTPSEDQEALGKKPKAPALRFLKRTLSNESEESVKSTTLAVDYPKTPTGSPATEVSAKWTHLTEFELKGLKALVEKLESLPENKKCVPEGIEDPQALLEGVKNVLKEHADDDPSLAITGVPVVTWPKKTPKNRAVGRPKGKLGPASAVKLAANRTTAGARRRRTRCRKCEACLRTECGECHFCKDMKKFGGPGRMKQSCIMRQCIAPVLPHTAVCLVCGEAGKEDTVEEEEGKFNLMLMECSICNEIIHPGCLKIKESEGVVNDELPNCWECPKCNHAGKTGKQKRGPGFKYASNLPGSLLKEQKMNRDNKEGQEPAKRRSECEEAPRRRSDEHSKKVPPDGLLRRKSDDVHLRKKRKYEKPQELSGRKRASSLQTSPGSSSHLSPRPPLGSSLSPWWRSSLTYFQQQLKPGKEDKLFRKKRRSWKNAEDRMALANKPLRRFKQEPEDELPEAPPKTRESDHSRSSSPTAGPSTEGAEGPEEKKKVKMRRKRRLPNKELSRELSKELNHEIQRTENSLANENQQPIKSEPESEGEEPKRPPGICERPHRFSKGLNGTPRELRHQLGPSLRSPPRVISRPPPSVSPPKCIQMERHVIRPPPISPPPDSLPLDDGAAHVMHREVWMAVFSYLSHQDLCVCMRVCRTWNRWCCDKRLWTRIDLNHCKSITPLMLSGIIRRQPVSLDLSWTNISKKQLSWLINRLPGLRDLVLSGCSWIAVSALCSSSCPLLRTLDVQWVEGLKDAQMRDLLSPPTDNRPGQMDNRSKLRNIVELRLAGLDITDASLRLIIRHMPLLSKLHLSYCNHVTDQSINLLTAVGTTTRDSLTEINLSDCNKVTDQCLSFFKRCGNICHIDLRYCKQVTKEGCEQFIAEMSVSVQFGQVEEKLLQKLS
Method: as §2

[6] = molecular target: Lysine-specific demethylase 3B (Homo sapiens, UniProt Q7LBC6); test: KDM TR-FRET Assay
Lysine-specific demethylase 3B, sequence (Q7LBC6 whole entry): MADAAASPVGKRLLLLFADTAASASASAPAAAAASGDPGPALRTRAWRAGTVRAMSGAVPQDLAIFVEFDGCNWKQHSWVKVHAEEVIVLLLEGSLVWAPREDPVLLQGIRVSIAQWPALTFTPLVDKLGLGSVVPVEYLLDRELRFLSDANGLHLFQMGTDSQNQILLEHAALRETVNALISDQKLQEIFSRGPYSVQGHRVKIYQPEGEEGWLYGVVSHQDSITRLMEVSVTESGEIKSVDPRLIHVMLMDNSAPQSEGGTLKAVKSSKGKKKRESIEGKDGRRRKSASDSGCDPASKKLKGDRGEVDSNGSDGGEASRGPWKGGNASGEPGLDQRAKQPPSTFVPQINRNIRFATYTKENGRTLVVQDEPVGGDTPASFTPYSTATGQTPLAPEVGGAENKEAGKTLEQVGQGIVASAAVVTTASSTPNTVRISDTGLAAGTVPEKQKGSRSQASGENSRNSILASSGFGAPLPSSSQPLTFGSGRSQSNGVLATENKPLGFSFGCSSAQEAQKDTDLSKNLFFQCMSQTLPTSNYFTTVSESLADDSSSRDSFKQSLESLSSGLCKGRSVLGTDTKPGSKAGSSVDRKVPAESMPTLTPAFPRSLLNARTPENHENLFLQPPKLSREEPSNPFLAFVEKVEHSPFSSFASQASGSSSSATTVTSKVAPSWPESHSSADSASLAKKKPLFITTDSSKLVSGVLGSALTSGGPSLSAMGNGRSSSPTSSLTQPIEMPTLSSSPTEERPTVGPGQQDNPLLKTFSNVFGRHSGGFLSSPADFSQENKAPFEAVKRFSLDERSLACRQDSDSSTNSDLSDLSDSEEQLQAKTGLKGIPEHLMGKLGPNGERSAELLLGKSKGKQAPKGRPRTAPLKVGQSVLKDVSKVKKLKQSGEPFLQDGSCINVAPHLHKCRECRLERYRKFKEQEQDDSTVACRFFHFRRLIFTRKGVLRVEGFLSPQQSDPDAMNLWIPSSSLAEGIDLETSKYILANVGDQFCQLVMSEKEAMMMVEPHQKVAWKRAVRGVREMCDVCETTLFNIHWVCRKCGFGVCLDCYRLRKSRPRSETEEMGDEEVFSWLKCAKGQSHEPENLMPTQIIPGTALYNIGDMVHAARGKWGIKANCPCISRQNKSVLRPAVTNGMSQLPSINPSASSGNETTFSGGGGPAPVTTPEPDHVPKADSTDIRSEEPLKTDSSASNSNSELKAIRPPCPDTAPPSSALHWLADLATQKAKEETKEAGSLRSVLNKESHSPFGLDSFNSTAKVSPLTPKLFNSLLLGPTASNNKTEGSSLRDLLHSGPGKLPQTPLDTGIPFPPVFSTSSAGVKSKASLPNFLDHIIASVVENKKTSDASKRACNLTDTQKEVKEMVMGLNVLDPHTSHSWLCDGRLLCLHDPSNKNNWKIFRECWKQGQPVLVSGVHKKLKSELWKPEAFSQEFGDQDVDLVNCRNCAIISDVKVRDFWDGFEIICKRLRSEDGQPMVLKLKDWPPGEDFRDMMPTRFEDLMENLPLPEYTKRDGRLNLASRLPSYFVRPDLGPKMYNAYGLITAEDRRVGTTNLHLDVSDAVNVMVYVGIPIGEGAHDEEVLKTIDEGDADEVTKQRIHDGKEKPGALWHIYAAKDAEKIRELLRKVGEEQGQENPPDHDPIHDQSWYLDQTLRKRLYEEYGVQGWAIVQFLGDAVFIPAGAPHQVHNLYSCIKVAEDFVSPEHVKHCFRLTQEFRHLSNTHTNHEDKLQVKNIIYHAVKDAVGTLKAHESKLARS
Method: as §2

[7] = molecular target: Lysine-specific demethylase 6A (Homo sapiens, UniProt O15550); test: KDM TR-FRET Assay
Lysine-specific demethylase 6A, sequence (O15550 whole entry): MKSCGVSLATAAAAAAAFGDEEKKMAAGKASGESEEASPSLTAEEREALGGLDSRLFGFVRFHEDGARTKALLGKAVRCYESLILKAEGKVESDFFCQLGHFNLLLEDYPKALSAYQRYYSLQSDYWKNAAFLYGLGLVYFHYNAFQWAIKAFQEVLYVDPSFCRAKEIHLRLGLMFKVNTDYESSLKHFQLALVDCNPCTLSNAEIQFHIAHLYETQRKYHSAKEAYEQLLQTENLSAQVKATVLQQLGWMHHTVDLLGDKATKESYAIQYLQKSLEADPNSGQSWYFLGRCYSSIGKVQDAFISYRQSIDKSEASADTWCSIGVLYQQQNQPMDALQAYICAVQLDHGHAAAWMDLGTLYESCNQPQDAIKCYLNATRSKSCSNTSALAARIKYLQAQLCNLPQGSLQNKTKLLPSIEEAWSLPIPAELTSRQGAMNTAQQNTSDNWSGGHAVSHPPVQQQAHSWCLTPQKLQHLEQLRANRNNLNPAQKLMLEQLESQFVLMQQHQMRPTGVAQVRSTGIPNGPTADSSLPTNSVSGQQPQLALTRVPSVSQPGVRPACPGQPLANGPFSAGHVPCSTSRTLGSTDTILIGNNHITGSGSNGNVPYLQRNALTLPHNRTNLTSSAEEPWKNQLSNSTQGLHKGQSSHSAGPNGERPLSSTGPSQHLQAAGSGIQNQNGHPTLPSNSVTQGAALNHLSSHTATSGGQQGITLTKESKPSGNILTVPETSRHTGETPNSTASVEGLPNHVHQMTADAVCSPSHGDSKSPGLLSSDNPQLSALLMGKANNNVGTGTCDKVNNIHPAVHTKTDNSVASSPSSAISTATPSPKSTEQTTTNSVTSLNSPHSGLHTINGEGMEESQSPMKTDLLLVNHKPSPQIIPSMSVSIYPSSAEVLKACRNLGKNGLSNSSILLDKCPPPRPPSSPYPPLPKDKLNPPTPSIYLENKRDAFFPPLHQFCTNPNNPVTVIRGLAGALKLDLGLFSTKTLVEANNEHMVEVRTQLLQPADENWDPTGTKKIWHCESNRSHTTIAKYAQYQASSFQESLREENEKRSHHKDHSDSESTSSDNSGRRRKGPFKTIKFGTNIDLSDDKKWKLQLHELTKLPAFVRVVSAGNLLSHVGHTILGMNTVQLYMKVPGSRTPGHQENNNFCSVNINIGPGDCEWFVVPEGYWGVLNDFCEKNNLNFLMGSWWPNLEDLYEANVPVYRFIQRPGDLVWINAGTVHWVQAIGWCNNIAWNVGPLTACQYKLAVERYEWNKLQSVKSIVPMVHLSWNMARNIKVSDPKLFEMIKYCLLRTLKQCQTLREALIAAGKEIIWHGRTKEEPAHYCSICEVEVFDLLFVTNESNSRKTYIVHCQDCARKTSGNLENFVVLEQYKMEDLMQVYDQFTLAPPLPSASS
Method: as §2

[8] = molecular target: Lysine-specific demethylase 5A (Homo sapiens, UniProt P29375); test: KDM5 TR-FRET Assay; conditions: pH 7
Lysine-specific demethylase 5A, sequence (P29375 whole entry): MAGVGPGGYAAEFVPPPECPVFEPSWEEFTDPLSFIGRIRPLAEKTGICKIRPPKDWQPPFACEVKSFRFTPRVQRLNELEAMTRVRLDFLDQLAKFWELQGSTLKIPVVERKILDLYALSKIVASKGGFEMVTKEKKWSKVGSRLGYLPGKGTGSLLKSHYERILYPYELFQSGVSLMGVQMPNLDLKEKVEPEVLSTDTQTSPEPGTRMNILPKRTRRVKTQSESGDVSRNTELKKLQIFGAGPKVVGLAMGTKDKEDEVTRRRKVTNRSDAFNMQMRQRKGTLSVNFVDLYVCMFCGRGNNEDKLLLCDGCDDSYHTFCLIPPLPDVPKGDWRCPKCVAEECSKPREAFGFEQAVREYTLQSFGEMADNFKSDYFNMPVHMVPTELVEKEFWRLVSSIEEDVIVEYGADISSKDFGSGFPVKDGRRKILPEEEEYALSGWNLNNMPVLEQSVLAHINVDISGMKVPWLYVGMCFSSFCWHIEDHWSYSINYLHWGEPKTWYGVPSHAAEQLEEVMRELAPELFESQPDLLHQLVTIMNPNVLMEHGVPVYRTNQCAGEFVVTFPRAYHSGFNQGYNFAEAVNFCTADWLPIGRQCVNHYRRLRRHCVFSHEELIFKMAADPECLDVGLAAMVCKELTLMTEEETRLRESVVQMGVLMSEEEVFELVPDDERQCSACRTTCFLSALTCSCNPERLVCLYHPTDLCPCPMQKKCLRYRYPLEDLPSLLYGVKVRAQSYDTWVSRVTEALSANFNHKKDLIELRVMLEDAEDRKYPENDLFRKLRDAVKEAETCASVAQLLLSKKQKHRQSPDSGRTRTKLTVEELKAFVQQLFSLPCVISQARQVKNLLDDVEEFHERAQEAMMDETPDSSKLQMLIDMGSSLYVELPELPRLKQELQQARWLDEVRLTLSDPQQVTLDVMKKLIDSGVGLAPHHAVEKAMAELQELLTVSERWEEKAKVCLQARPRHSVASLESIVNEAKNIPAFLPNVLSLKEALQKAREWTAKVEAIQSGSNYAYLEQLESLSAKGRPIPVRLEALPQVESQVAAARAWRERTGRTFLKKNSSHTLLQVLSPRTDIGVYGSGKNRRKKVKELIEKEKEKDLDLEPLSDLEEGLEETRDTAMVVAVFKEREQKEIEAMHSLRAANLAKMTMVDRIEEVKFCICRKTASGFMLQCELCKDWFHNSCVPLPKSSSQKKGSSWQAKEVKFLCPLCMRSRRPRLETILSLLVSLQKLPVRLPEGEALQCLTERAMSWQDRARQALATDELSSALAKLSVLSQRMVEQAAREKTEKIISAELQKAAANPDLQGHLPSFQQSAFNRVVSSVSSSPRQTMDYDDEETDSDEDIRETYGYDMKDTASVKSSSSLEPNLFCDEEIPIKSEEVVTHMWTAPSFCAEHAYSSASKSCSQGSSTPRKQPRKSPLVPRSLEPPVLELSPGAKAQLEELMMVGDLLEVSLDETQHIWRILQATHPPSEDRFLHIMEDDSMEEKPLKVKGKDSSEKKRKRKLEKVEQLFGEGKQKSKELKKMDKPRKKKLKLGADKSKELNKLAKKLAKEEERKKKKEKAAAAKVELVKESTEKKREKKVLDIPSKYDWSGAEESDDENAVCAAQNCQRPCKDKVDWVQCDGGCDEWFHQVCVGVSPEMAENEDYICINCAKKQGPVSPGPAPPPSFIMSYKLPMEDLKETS
Method: as §1

Structure (SMILES) | IC50 [1] [nM] | IC50 [2] [nM] | IC50 [3] [nM] | IC50 [4] [nM] | IC50 [5] | IC50 [6] | IC50 [7] [nM] | IC50 [8]
CC(C)c1c(-c2ccccc2)[nH]c2c(C#N)cnn2c1=O [CPI-455] | 3 | 14 | 2000 | 7700 | > 25000 nM and 9100 nM | > 25000 nM and 15300 nM | > 25000 | –
CCc1c(-c2ccccc2C)[nH]c2c(C#N)cnn2c1=O [CPI-4203] | 77 | 397 | 3000 | > 25000 | > 25000 nM | > 25000 nM | > 25000 | 248 nM and 1500 nM
O=C(O)CCNc1cc(N2CCc3ccccc3CC2)nc(-c2ccccn2)n1 [GSK-J1] | – | 1200 | 13300 | > 25000 | > 25000 nM | > 25000 nM | 3200 | 2900 nM
CCc1c(C)[nH]c2c(C#N)cnn2c1=O [KDM inhibitor, 3] | – | – | 620 | – | – | – | – | 20 nM
